The record followed here is US7803769B2 (priority 2006, dated 2010).

For data set [1], the target named is human Kv1.3 channel (Homo sapiens, UniProt P22001). Format: cell-based.
Data set [2] deals with T1, human Kv1.1 (Homo sapiens, UniProt Q09470).
T1 construct: expressed in transfected cells; host or cells: HEK293
Format: cell-based.

For data set [3], the system named is IL-2 production from PMA and αCD3 antibody stimulated human PBMCs. Format: cell-based.
Data set [4] relates to IFNγ production from PMA and αCD3 antibody stimulated human PBMCs. Format: cell-based.
In data set [5] the test system is IL-2 production from αCD3 and αCD28 antibody stimulated human PBMCs. Format: cell-based.
Data set [6] has as its system IFNγ production from αCD3 and αCD28 antibody stimulated human PBMCs. Format: cell-based.
The subject of data set [7] is adoptive transfer EAE model of multiple sclerosis. The note with it: rat, in vivo, sc.
Data set [8] concerns thapsigargin-induced IFN-g production in human whole blood. Format: cell-based.
In data set [9] the test system is CD40L on CD4+ T cells in human whole blood. Format: cell-based.
Data set [10] concerns IL-2R on CD4+ T cells in human whole blood. Format: cell-based.
The conditions of data set [11]: rat, in vivo, iv.
The test system of data set [12] is T cell proliferation in human PBMCs. In words: T cell proliferation (3H-thymidine incorporation) in anti-CD3/anti-CD28 stimulated human PBMCs. Format: cell-based. Particulars: two normal donors. The text has this: Inhibition of T cell proliferation following anti-CD3 and anti-CD28 antibody stimulation of PBMCs. PBMC's were previously isolated from normal human donor Leukophoresis packs, purified by density gradient centrifugation (Ficoll Hypaque), cryopreserved in CPZ Cryopreservation Medium Complete (INCELL, MCPZF-100 plus 10% DMSO final). PBMC's were thawed (95% viability), washed, and seeded at 2×10^5 cells per well in culture medium (RPMI medium 1640; GIBCO) supplemented with 10% fetal calf serum, 100 U/ml penicillin, […] streptomycin, 2 mM L-glutamine, 100 μM non-essential amino acids, and 20 μM 2-ME) in 96-well flat-bottom tissue culture plates. Cells were pre-incubated with either anti-human CD32 (FcyRII) blocking antibody (per manufacturers instructions EASY SEP Human Biotin Selection Kit #18553, StemCell Technologies Vancouver, BC) or Fc-L10-ShK (100 nM-0.001 nM final) for 45 min. Fc-L10-ShK (100 nM-0.001 nM final) was then added to the cells containing anti-human CD32 blocking antibody while medium was added to the cells containing Fc-L10-ShK. Both sets were incubated for an additional 45 min before stimulating for 48 hr with aCD3/aCD28 (0.2 ng/ml and 100 ng/ml, respectively). Final assay volume was 200 ul. […] Cells were then harvested onto glass fiber filters and radioactivity was measured in a B-scintillation counter.
For orientation: Uptake of a labelled nucleoside into DNA is a usual measure of proliferation.

Data set [13] deals with HEK 293 cells overexpressing human Kv1.3 (Homo sapiens, UniProt P22001). As to the kind of experiment: Immunohistochemistry binding to HEK 293 cells overexpressing human Kv1.3. Particulars: 5 μg/ml. On the procedure: Immunohistochemistry analysis of Fc-L10-ShK[1-35] binding to HEK 293 cells overexpressing human Kv1.3. HEK 293 cells overexpressing human Kv1.3 (HEK Kv1.3) were obtained from BioFocus plc (Cambridge, UK) and maintained per manufacturer's recommendation. The parental HEK 293 cell line was used as a control. Cells were plated on Poly-D-Lysine 24 well plates (#35-4414; Becton-Dickinson, Bedford, Mass.) and allowed to grow to approximately 70% confluence. HEK KV1.3 were plated at 0.5×10e5 cells/well in 1 ml/well of medium. HEK 293 cells were plated at a density of 1.5×10e5 cells/well in 1 ml/well of medium. Before staining, cells were fixed with formalin (Sigma HT50-1-1 Formalin solution, diluted 1:1 with PBS/0.5% BSA before use) by removing cell growth medium, adding 0.2 ml/well formalin solution and incubating at room temperature for ten minutes. Cells were stained by incubating with 0.2 ml/well of 5 μg/ml Fc-L10-ShK[1-35] in PBS/BSA for 30′ at room temperature. Fc-L10-ShK[1-35] was aspirated and then the cells were washed one time with PBS/0.5% BSA. Detection antibody (Goat F(ab)2 anti-human IgG-phycoerythrin; Southern Biotech Associates, Birmingham, Ala.) was added to the wells at 5 μg/ml in PBS/0.5% BSA and incubated for 30′ at room temperature. Wash cells once with PBS/0.5% BSA and examine using confocal microscopy (LSM 510 Meta Confocal Microscope; Carl Zeiss AG, Germany). […]

Data set [14] concerns the target fixed HEK 293 cells stably transfected with human Kv1.3 (Homo sapiens, UniProt P22001). As to the kind of experiment: Whole cell immunoassay (ELISA) on fixed HEK 293 cells overexpressing Kv1.3. Format: binding. The method, then:
Our peptibody reagent can be a useful and convenient tool for monitoring Kv1.3 channel expression in patients and have utility in diagnostic applications. The procedure shown in FIG. 34A and FIG. 34B follows.
FIG. 34A. A whole cell immunoassay was performed to show binding of intact Fc-L10-ShK[1-35] to Kv1.3 transfected HEK 293 cells (BioFocus plc, Cambridge, UK). Parent HEK 293 cells or HEK Kv1.3 cells were plated at 3×10e4 cells/well in poly-D-Lysine coated ninety-six well plates (#35-4461; Becton-Dickinson, Bedford, Mass.). Cells were fixed with formalin (Sigma HT50-1-1 Formalin solution, diluted 1:1 with PBS/0.5% BSA before use) by removing cell growth medium, adding 0.2 ml/well formalin solution and incubating at room temperature for 25 minutes and then washing one time with 100 μl/well of PBS/0.5% BSA. Wells were blocked by addition of 0.3 ml/well of BSA blocker (50-61-00; KPL 10% BSA Diluent/Blocking Solution, diluted 1:1 with PBS; KPL, Gaithersburg, Md.) followed by incubation at room temperature, with shaking, for 3 hr. Plates were washed 2 times with 1×KP Wash Buffer (50-63-00; KPL). […] Absorbance was read at 450 nm on a Molecular Devices SpectroMax 340 (Sunnyvale, Calif.).
FIG. 34B. […] Absorbances were read at 405 nm after stopping reactions by addition of 0.1 ml/well of 1% SDS.
For orientation: In an ELISA, binding on a coated surface is turned into a signal by an enzyme label.

human Kv1.3 channel, sequence (P22001 whole entry): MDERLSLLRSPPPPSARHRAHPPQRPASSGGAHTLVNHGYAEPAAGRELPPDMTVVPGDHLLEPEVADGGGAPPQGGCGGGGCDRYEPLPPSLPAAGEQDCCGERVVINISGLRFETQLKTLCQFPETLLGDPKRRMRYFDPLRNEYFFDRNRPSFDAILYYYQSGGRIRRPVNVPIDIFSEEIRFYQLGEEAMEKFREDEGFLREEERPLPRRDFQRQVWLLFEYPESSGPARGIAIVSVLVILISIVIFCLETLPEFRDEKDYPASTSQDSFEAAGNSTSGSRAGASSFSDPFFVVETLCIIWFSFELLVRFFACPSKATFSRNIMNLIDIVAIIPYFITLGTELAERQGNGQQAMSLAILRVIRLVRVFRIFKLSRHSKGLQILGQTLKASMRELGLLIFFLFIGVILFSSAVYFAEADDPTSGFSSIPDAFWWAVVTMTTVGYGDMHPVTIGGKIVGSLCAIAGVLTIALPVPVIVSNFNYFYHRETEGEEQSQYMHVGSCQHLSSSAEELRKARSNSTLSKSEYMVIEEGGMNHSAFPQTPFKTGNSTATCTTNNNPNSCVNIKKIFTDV
T1 sequence (Q09470 whole entry): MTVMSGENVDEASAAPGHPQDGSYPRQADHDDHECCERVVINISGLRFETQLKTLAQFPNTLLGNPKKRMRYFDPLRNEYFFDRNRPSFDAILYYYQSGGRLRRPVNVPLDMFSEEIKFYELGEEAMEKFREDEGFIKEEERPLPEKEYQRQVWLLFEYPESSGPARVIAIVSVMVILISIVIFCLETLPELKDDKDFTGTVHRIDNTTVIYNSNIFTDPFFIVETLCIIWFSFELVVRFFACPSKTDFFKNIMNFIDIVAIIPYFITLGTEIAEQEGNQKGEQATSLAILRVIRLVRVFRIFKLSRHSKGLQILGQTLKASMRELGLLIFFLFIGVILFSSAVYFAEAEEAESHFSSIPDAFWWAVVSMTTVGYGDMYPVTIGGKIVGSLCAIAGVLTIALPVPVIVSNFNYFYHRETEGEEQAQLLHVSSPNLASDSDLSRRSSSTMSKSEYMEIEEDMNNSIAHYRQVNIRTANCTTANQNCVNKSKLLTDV
HEK 293 cells overexpressing human Kv1.3, sequence (P22001 whole entry): as the sequence (P22001 whole entry) above
fixed HEK 293 cells stably transfected with human Kv1.3, sequence (P22001 whole entry): as above

As to “Fc-L10-OSK1[E16K,K20D]: Fc-L10-OSK1 with E16K and K20D substitutions”, in [1], the “difference in Kv1.3 potency compared to Fc-L10-OSK1” value came out at 1.3 fold and the “fold less potent than the synthetic OSK1 toxin peptide (Kv1.3)” value was “approximately 6 fold”. The “blocking activity against Kv1.1 (in words)” value in [2] was “removed the blocking activity against Kv1.1”.

On to `CC[C@H](C)[C@@H]1NC(=O)[C@@H](NC(=O)[C@H](CO)NC(=O)[C@@H](N)CCCNC(=N)N)CSSC[C@@H](C(=O)O)NC(=O)[C@H]([C@@H](C)O)NC(=O)CNC(=O)[C@@H]2CSSC[C@@H]3NC(=O)[C@H](CCC(N)=O)NC(=O)[C@H](Cc4ccccc4)NC(=O)[C@H](C)NC(=O)[C@H]([C@@H](C)O)NC(=O)[C@H](CSSC[C@H](NC(=O)[C@H](Cc4ccccc4)NC(=O)[C@H](CO)NC(=O)[C@H](CC(C)C)NC(=O)[C@H](CCCNC(=N)N)NC(=O)[C@H](Cc4ccc(O)cc4)NC(=O)[C@H](CCCCN)NC(=O)[C@H](CCSC)NC(=O)[C@H](CO)NC(=O)[C@H](Cc4cnc[nH]4)NC(=O)[C@H](CCCCN)NC3=O)C(=O)N[C@@H](CCCNC(=N)N)C(=O)N[C@@H](CCCCN)C(=O)N[C@@H]([C@@H](C)O)C(=O)N2)NC(=O)[C@H](CCCNC(=N)N)NC(=O)[C@H](CO)NC(=O)[C@H](CCCCN)NC(=O)[C@@H]2CCCN2C(=O)[C@H]([C@@H](C)CC)NC(=O)[C@H]([C@@H](C)O)NC(=O)[C@H](CC(=O)O)NC1=O` [ShK, reference compound], for which, in data set [3], the “inhibition of IL-2 production (in words)” value is given as “only a partial inhibition”. Moreover, the “inhibition of IFNγ production (in words)” value in [4] is “only a partial inhibition”. Moreover, the “inhibition of IL-2 production (in words)” value in data set [5] was “only partial inhibition”. In addition, the “inhibition of IFNg production (in words)” value in data set [6] is on record as “only partial inhibition”. In [7], the “average body weight lost” value is given as 30 g; the “disease severity and survival (in words)” value was “developed severe disease and died”; the “onset of disease” value was found to be 4 days. The “thapsigargin-induced IFN-g production in human whole blood (in words)” value in [8] was “suppressed”. For the same molecule, in data set [9], the “thapsigargin-induced upregulation of CD40L on T cells (in words)” value was “suppressed”. Further, the “thapsigargin-induced upregulation of IL-2R on T cells (in words)” value in data set [10] is “suppressed”. In addition, the “time of significant suppression of Kv1.3 current (<70 POC) by 5% serum Test solutions” value in data set [11] was not above 1 h.

For the molecule “Fc-L10-ShK[1-35]: Fc region of human IgG1 fused in-frame to L10 linker and a monomer of ShK[1-35]”, the “block of human Kv1.3 current (in words)” value in data set [1] is given as “potently blocked human Kv1.3”. Also, the “inhibition of IL-2 production (in words)” value in [3] is “complete inhibition of the response”; in [5], “nearly complete inhibition”. The “inhibition of IFNγ production (in words)” value in data set [4] is recorded as “complete inhibition of the response”. Moreover, the “inhibition of IFNg production (in words)” value in data set [6] was “nearly complete inhibition”. Further, the “inhibition of T cell proliferation (in words)” value in data set [12] is “potently inhibits proliferation of T cells in a dose-dependent manner”. Moreover, the “binding to Kv1.3 overexpressing HEK 293 cells (staining)” value in [13] was “binds to Kv1.3 overexpressing HEK 293 cells but shows little binding to untransfected cells”. In addition, in data set [14], the “binding to fixed cells that overexpress Kv1.3 (ELISA)” value is reported as “dose-dependent increase in the peptibody binding to fixed cells that overexpress Kv1.3”. Besides, in data set [9], the “thapsigargin-induced upregulation of CD40L on T cells (in words)” value was “suppressed”. The “thapsigargin-induced upregulation of IL-2R on T cells (in words)” value in [10] was “suppressed”.
